Experimental data taken from the supplement of paper PMC10307832.

How the values were obtained:
Test in all cases: relative viability (nuclei count vs DMSO), 5 days (fraction); higher = more cells survive
NCI-H650 = tested on: NCI-H650
Outline: (§1)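 Medians of duplicate plates are given as relative viability. That measure is the nuclei count in treated wells divided by the count in vehicle wells. Counts were taken on 4× images of lung cancer cell lines in 1536-well plates, 5 days after pin-tool dosing the day after seeding with one drug alone or a fixed anchor-drug dose plus five library-drug doses (not always all listed) in √10 steps.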

UMC-11 = tested on: UMC-11
Outline: as §1

NCI-H838 = tested on: NCI-H838
Outline: as §1

HCC-15 = tested on: HCC-15
Outline: as §1

NCI-H460 = tested on: NCI-H460
Outline: as §1

HARA = tested on: HARA
Outline: as §1

NCI-H2342 = tested on: NCI-H2342
Outline: as §1

NCI-H1651 = tested on: NCI-H1651
Outline: as §1

NCI-H522 = tested on: NCI-H522
Outline: as §1

NCI-H2347 = tested on: NCI-H2347
Outline: as §1

COR-L23 = tested on: COR-L23
Outline: as §1

NCI-H358 = tested on: NCI-H358
Outline: as §1

NCI-H2009 = tested on: NCI-H2009
Outline: as §1

EPLC-272H = tested on: EPLC-272H
Outline: as §1

PC-14 = tested on: PC-14
Outline: as §1

NCI-H2085 = tested on: NCI-H2085
Outline: as §1

NCI-H2126 = tested on: NCI-H2126
Outline: as §1

LU99A = tested on: LU99A
Outline: as §1

NCI-H1915 = tested on: NCI-H1915
Outline: as §1

LC-2-ad = tested on: LC-2-ad
Outline: as §1

NCI-H1993 = tested on: NCI-H1993
Outline: as §1

HCC-78 = tested on: HCC-78
Outline: as §1

SW 1573 = tested on: SW 1573
Outline: as §1

Q: For `COc1cc(N2CCC(C(N)=O)CC2)ccc1Nc1nc(N)c(Cl)c(Nc2ccccc2S(=O)(=O)C(C)C)n1` [HG-5-88-01] + Nc1nc2[nH]cc(CCc3ccc(C(=O)N[C@@H](CCC(=O)O)C(=O)O)cc3)c2c(=O)[nH]1 [Pemetrexed] (partner 0.2 µM), which relative viability (NCI-H650; first compound 0.04 µM) is on record?
A: 0.985

Q: What about the relative viability (NCI-H650; first compound 0.1265 µM) of the same compound?
A: 0.91

Q: And the relative viability (NCI-H650; first compound 0.4 µM)?
A: 0.844

Q: And the relative viability (NCI-H650; first compound 1.265 µM)?
A: 0.896

Q: And the relative viability (NCI-H650; first compound 4 µM)?
A: 0.476

Q: What about the relative viability (UMC-11; first compound 0.04 µM) of the same compound?
A: 0.797

Q: And the relative viability (UMC-11; first compound 0.1265 µM)?
A: 0.772

Q: And the relative viability (UMC-11; first compound 0.4 µM)?
A: 0.844

Q: What about the relative viability (UMC-11; first compound 1.265 µM) of the same compound?
A: 0.827

Q: What about the relative viability (UMC-11; first compound 4 µM) of the same compound?
A: 0.789

Q: And the relative viability (NCI-H838; first compound 0.04 µM)?
A: 0.248

Q: What about the relative viability (NCI-H838; first compound 0.1265 µM) of the same compound?
A: 0.256

Q: What about the relative viability (NCI-H838; first compound 0.4 µM) of the same compound?
A: 0.209

Q: And the relative viability (NCI-H838; first compound 1.265 µM)?
A: 0.234

Q: What about the relative viability (NCI-H838; first compound 4 µM) of the same compound?
A: 0.246

Q: What about the relative viability (HCC-15; first compound 0.04 µM) of the same compound?
A: 0.209

Q: And the relative viability (HCC-15; first compound 0.1265 µM)?
A: 0.221

Q: What about the relative viability (HCC-15; first compound 0.4 µM) of the same compound?
A: 0.213

Q: What about the relative viability (HCC-15; first compound 1.265 µM) of the same compound?
A: 0.229

Q: What about the relative viability (HCC-15; first compound 4 µM) of the same compound?
A: 0.185

Q: And the relative viability (NCI-H460; first compound 0.04 µM)?
A: 0.0629

Q: What about the relative viability (NCI-H460; first compound 0.1265 µM) of the same compound?
A: 0.0611

Q: And the relative viability (NCI-H460; first compound 0.4 µM)?
A: 0.054

Q: And the relative viability (NCI-H460; first compound 1.265 µM)?
A: 0.0633

Q: What about the relative viability (NCI-H460; first compound 4 µM) of the same compound?
A: 0.0701

Q: And the relative viability (HARA; first compound 0.04 µM)?
A: 0.221

Q: What about the relative viability (HARA; first compound 0.1265 µM) of the same compound?
A: 0.225

Q: And the relative viability (HARA; first compound 0.4 µM)?
A: 0.199

Q: And the relative viability (HARA; first compound 1.265 µM)?
A: 0.24

Q: And the relative viability (HARA; first compound 4 µM)?
A: 0.201

Q: And the relative viability (NCI-H2342; first compound 0.04 µM)?
A: 0.664

Q: What about the relative viability (NCI-H2342; first compound 0.1265 µM) of the same compound?
A: 0.769

Q: And the relative viability (NCI-H2342; first compound 0.4 µM)?
A: 0.704

Q: What about the relative viability (NCI-H2342; first compound 4 µM) of the same compound?
A: 0.856

Q: And the relative viability (NCI-H1651; first compound 0.04 µM)?
A: 0.499

Q: What about the relative viability (NCI-H1651; first compound 0.1265 µM) of the same compound?
A: 0.586

Q: What about the relative viability (NCI-H1651; first compound 0.4 µM) of the same compound?
A: 0.622

Q: What about the relative viability (NCI-H1651; first compound 1.265 µM) of the same compound?
A: 0.538

Q: What about the relative viability (NCI-H1651; first compound 4 µM) of the same compound?
A: 0.614

Q: What about the relative viability (NCI-H522; first compound 0.04 µM) of the same compound?
A: 0.967

Q: What about the relative viability (NCI-H522; first compound 0.1265 µM) of the same compound?
A: 0.969

Q: And the relative viability (NCI-H522; first compound 0.4 µM)?
A: 1.01

Q: And the relative viability (NCI-H522; first compound 1.265 µM)?
A: 0.841

Q: What about the relative viability (NCI-H522; first compound 4 µM) of the same compound?
A: 0.783

Q: What about the relative viability (NCI-H2347; first compound 0.04 µM) of the same compound?
A: 0.413

Q: And the relative viability (NCI-H2347; first compound 0.1265 µM)?
A: 0.399

Q: And the relative viability (NCI-H2347; first compound 0.4 µM)?
A: 0.433

Q: What about the relative viability (NCI-H2347; first compound 1.265 µM) of the same compound?
A: 0.424

Q: What about the relative viability (NCI-H2347; first compound 4 µM) of the same compound?
A: 0.441

Q: What about the relative viability (COR-L23; first compound 0.04 µM) of the same compound?
A: 0.196

Q: What about the relative viability (COR-L23; first compound 0.1265 µM) of the same compound?
A: 0.208

Q: What about the relative viability (COR-L23; first compound 0.4 µM) of the same compound?
A: 0.184

Q: What about the relative viability (COR-L23; first compound 1.265 µM) of the same compound?
A: 0.199

Q: What about the relative viability (COR-L23; first compound 4 µM) of the same compound?
A: 0.166

Q: And the relative viability (NCI-H358; first compound 0.04 µM)?
A: 0.145

Q: And the relative viability (NCI-H358; first compound 0.1265 µM)?
A: 0.174

Q: What about the relative viability (NCI-H358; first compound 0.4 µM) of the same compound?
A: 0.162

Q: What about the relative viability (NCI-H358; first compound 1.265 µM) of the same compound?
A: 0.132

Q: And the relative viability (NCI-H358; first compound 4 µM)?
A: 0.148

Q: And the relative viability (NCI-H2009; first compound 0.04 µM)?
A: 1.01

Q: What about the relative viability (NCI-H2009; first compound 0.1265 µM) of the same compound?
A: 1.03

Q: What about the relative viability (NCI-H2009; first compound 0.4 µM) of the same compound?
A: 0.959

Q: What about the relative viability (NCI-H2009; first compound 1.265 µM) of the same compound?
A: 0.963

Q: And the relative viability (NCI-H2009; first compound 4 µM)?
A: 0.975

Q: What about the relative viability (EPLC-272H; first compound 0.04 µM) of the same compound?
A: 0.341

Q: And the relative viability (EPLC-272H; first compound 0.1265 µM)?
A: 0.262

Q: What about the relative viability (EPLC-272H; first compound 0.4 µM) of the same compound?
A: 0.319

Q: And the relative viability (EPLC-272H; first compound 1.265 µM)?
A: 0.307

Q: And the relative viability (EPLC-272H; first compound 4 µM)?
A: 0.0795

Q: And the relative viability (PC-14; first compound 0.04 µM)?
A: 0.124

Q: And the relative viability (PC-14; first compound 0.1265 µM)?
A: 0.114

Q: What about the relative viability (PC-14; first compound 0.4 µM) of the same compound?
A: 0.0722

Q: What about the relative viability (PC-14; first compound 1.265 µM) of the same compound?
A: 0.129

Q: And the relative viability (PC-14; first compound 4 µM)?
A: 0.074

Q: And the relative viability (NCI-H2085; first compound 0.04 µM)?
A: 0.911

Q: And the relative viability (NCI-H2085; first compound 0.1265 µM)?
A: 0.986

Q: And the relative viability (NCI-H2085; first compound 0.4 µM)?
A: 0.864

Q: What about the relative viability (NCI-H2085; first compound 1.265 µM) of the same compound?
A: 0.861

Q: And the relative viability (NCI-H2085; first compound 4 µM)?
A: 0.698

Q: And the relative viability (NCI-H2126; first compound 0.04 µM)?
A: 0.644

Q: What about the relative viability (NCI-H2126; first compound 0.1265 µM) of the same compound?
A: 0.667

Q: What about the relative viability (NCI-H2126; first compound 0.4 µM) of the same compound?
A: 0.68

Q: And the relative viability (NCI-H2126; first compound 1.265 µM)?
A: 0.641

Q: What about the relative viability (NCI-H2126; first compound 4 µM) of the same compound?
A: 0.452

Q: What about the relative viability (LU99A; first compound 0.04 µM) of the same compound?
A: 0.163

Q: And the relative viability (LU99A; first compound 0.1265 µM)?
A: 0.211

Q: And the relative viability (LU99A; first compound 0.4 µM)?
A: 0.165

Q: What about the relative viability (LU99A; first compound 1.265 µM) of the same compound?
A: 0.193

Q: What about the relative viability (LU99A; first compound 4 µM) of the same compound?
A: 0.168

Q: What about the relative viability (NCI-H1915; first compound 0.04 µM) of the same compound?
A: 0.471

Q: What about the relative viability (NCI-H1915; first compound 0.1265 µM) of the same compound?
A: 0.5

Q: What about the relative viability (NCI-H1915; first compound 0.4 µM) of the same compound?
A: 0.352

Q: And the relative viability (NCI-H1915; first compound 1.265 µM)?
A: 0.541

Q: And the relative viability (NCI-H1915; first compound 4 µM)?
A: 0.441

Q: What about the relative viability (LC-2-ad; first compound 0.04 µM) of the same compound?
A: 0.257

Q: And the relative viability (LC-2-ad; first compound 0.1265 µM)?
A: 0.257

Q: What about the relative viability (LC-2-ad; first compound 0.4 µM) of the same compound?
A: 0.259

Q: And the relative viability (LC-2-ad; first compound 1.265 µM)?
A: 0.275

Q: And the relative viability (LC-2-ad; first compound 4 µM)?
A: 0.267

Q: What about the relative viability (NCI-H1993; first compound 0.04 µM) of the same compound?
A: 0.56

Q: And the relative viability (NCI-H1993; first compound 0.1265 µM)?
A: 0.577

Q: What about the relative viability (NCI-H1993; first compound 0.4 µM) of the same compound?
A: 0.552

Q: What about the relative viability (NCI-H1993; first compound 4 µM) of the same compound?
A: 0.554

Q: What about the relative viability (HCC-78; first compound 0.04 µM) of the same compound?
A: 0.824

Q: And the relative viability (HCC-78; first compound 0.1265 µM)?
A: 0.814

Q: What about the relative viability (HCC-78; first compound 0.4 µM) of the same compound?
A: 0.884

Q: What about the relative viability (HCC-78; first compound 1.265 µM) of the same compound?
A: 0.849

Q: What about the relative viability (HCC-78; first compound 4 µM) of the same compound?
A: 0.795

Q: And the relative viability (SW 1573; first compound 0.04 µM)?
A: 0.871

Q: And the relative viability (SW 1573; first compound 0.1265 µM)?
A: 0.79

Q: What about the relative viability (SW 1573; first compound 0.4 µM) of the same compound?
A: 0.689

Q: And the relative viability (SW 1573; first compound 1.265 µM)?
A: 0.777

Q: And the relative viability (SW 1573; first compound 4 µM)?
A: 0.823
